Key:
dopamine D3 receptor [1] = experiment: Ex vivo autoradiography of rat brain sections; type: in vivo
Procedure: Male Sprague Dawley rats (250–300 g) were injected with 20 MBq of [^18F]2b intra-venous under isoflurane (4%) anesthesia. For blocking studies BP897 (1 mg/kg) was administerd 30 min prior to radioligand injection. Rats were sacrificed by decapitation 30 min post radioligand injection and brains were removed and frozen in cooled hexane at −70 °C. Coronal and horizontal brain sections (12 µm) were cut on a cryostat microtome (HM550, Microm) and thaw-mounted on covered glass slides (Histobond®). The glass slides were placed on a phosphor screen (Fujitsu) over night. The screens were analyzed with a DUERR Medical HD-CR 35 Bio (Raytest) and evaluated using the software AIDA image analyzer (Raytest). Afterwards the sections were HE stained and ascribed to figures in the rat brain atlas. Binding in the regions of interest were evaluated as ratio of the activity in the region of interest through background activity. Binding in the cerebral matter of the respective sections was defined as background activity.

D3 receptor [2] = target: T1, D3 receptor (Rattus norvegicus, UniProt P19020); experiment: In vitro autoradiography of coronal rat brain sections; type: binding; details: displacement with BP897
T1 construct: In vitro autoradiography of coronal rat brain sections after incubation with the respective radioligand; from tissue; host or cells: coronal brain cryosections (20 µm) of male Sprague Dawley rats
T1 sequence (P19020 whole entry): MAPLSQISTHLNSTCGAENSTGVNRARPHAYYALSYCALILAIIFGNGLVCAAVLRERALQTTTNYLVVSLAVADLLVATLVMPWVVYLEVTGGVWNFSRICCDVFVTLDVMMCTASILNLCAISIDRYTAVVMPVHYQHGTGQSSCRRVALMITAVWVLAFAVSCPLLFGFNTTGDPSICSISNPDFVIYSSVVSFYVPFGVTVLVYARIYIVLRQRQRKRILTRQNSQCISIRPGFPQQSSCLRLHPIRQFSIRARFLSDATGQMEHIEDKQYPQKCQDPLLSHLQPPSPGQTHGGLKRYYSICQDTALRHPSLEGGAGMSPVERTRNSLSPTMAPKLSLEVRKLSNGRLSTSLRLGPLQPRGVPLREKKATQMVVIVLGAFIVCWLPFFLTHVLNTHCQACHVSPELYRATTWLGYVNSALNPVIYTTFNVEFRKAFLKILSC
Procedure: Male Sprague Dawley rats (200–250 g) were sacrificed by decapitation under deep isoflurane anesthesia and brains were removed and frozen in cooled hexane at −70 °C. Coronal brain sections (20 µm) were cut on a cryostat microtome (HM550, Microm-Thermo Fisher Scientific, Walldorf, Germany) and thaw-mounted on covered glass slides (Histobond®, Marienfeld, Lauda Königshofen, Germany). The thaw mounted sections were stored at −20 °C up to 14 days.
The cryostat sections were pre-incubated for 15 min in incubation buffer (50 mM Tris-HCl, 40 mM NaCl, pH 7.4) at room temperature. The sections were then placed in incubation buffer containing 5 MBq of the respective tracer. For displacement studies BP897 (50 nM or 1 µM) was added. The sections were incubated at room temperature for 45 min and afterwards washed in ice cold incubation buffer for 3 × 5 min. Subsequently, they were dipped in water and after drying placed on a phosphor imaging screen (Fujitsu, Berlin, Germany) over night. The screens were analyzed with a DUERR Medical HD-CR 35 Bio (Raytest, Straubenhardt, Germany) and evaluated using the software AIDA image analyzer (Raytest). For anatomical identification of brain regions, the sections were compared with figures in the rat brain atlas.

dopamine D3 receptor [3] = experiment: Dynamic small-animal PET recordings; type: in vivo; details: rat
Procedure: Small-animal PET imaging studies were conducted with male Sprague Dawleys rats (250–300 g) on a Inveon microPET scanner (Siemens Healthcare, Erlangen, Germany) under isoflurane (3%) anesthesia. After intravenous injection of [^18F]2b (10–15 MBq), dynamic emission recordings consisting of 13 frames of duration increasing from 30 s to 10 min were acquired to a total of 60 min. For displacement studies BP897 (1 mg/kg) was administered 30 min prior to radioligand injection. Dynamic emission images were corrected for attenuation and decay, and reconstructed by the iterative maximum a posteriori estimation, using software installed in the Inveon PET for dead time and random correction. The dynamic PET scan was then evaluated using the software Amide. The regions of interest were evaluated voxel based and the mean activity in %ID/g of each frame calculated.

[4] = parameters: method as in PMID 24339325, PMID 26707848; details: over 120 min, previously reported; cited from earlier work
D3 receptor [5] = details: cited from earlier work
[6] = lateral ventricle, coronal section (Interaural 4.70, Bregma −4.30)
[7] = third ventricle, horizontal section (Interaural 5.90, Bregma −4.10)

COc1ccccc1N1CCN(CCCCNC(=O)/N=N/c2ccc([18F])cc2)CC1 [[^18F]2b]
ratio ROI/background (dopamine D3 receptor [1]; lateral and third ventricle, section (Interaural 5.70, Bregma −3.30)): 22 | displacement by BP897 (dopamine D3 receptor [1]; lateral and third ventricle, sections (Interaural 10.60, Bregma 1.60) and (Interaural 7.70, Bregma −1.30)): no displacement | ratio ROI/background (dopamine D3 receptor [1]; lateral and third ventricle, sections (Interaural 10.60, Bregma 1.60) and (Interaural 7.70, Bregma −1.30), 30 min p.i.): ~15 | displacement with BP897 (dopamine D3 receptor [1]; [6]): 60% | ratio ROI/background (dopamine D3 receptor [1]; [6]): ~30 | displacement by BP897 (dopamine D3 receptor [1]; section (Interaural 5.70, Bregma −3.30)): 40%–50% | displacement through BP897 (dopamine D3 receptor [1]; [7]): 50% | ratio ROI/background (dopamine D3 receptor [1]; [7]): 32 | binding pattern in rat brain sections (D3 receptor [2]): D3 specific binding was visible | uptake in the third and lateral ventricle (dopamine D3 receptor [3]): approximately 0.25 %ID/g | uptake in the pituitary gland (dopamine D3 receptor [3]; 30 min p.i.): 0.8 %ID/g | blocking of fourth ventricle uptake with BP897 (dopamine D3 receptor [3]; BP897 1 mg/kg): 50% | decrease of initial and mean pituitary gland uptake by blocking with BP897 (dopamine D3 receptor [3]; BP897 1 mg/kg): 35% | uptake in the pituitary gland (dopamine D3 receptor [3]; after approximately 5 min): 0.94 %ID/g | maximum uptake in the cerebral matter (dopamine D3 receptor [3]; at 65 s post intravenous injection): 0.14 %ID/g | uptake in the pituitary gland (dopamine D3 receptor [3]; end of the recording): 0.76 %ID/g | uptake in the fourth ventricle (dopamine D3 receptor [3]; initial uptake, constant over the 60 min of recording): 0.4 %ID/g | uptake in the cerebral matter after wash-out (dopamine D3 receptor [3]; over the 60 min of recording): 0.07 %ID/g | decomposition in human serum [4]: no decomposition was observed | Ki (D3 receptor [5]): 3.5 nM

Source: publication PMC6272905, “In Vitro and In Vivo Characterization of Selected Fluorine-18 Labeled Radioligands for PET Imaging of the Dopamine D3 Receptor” (Molecules, 2016)
